Data reported in ChEMBL document CHEMBL4507268 (2021).

How the values were obtained:
Conditions in all cases: Compound concentration 1.0 uM
[1] = biological target: Ribosomal protein S6 kinase alpha-1 (Homo sapiens) (UniProt Q15418)
[2] = biological target: Fibroblast growth factor receptor 4 (Homo sapiens) (UniProt P22455)
[3] = biological target: cAMP-dependent protein kinase catalytic subunit alpha (Homo sapiens) (UniProt P17612)
[4] = biological target: T1, Ephrin type-A receptor 3 (Homo sapiens) (UniProt P29320)
T1 sequence (whole entry): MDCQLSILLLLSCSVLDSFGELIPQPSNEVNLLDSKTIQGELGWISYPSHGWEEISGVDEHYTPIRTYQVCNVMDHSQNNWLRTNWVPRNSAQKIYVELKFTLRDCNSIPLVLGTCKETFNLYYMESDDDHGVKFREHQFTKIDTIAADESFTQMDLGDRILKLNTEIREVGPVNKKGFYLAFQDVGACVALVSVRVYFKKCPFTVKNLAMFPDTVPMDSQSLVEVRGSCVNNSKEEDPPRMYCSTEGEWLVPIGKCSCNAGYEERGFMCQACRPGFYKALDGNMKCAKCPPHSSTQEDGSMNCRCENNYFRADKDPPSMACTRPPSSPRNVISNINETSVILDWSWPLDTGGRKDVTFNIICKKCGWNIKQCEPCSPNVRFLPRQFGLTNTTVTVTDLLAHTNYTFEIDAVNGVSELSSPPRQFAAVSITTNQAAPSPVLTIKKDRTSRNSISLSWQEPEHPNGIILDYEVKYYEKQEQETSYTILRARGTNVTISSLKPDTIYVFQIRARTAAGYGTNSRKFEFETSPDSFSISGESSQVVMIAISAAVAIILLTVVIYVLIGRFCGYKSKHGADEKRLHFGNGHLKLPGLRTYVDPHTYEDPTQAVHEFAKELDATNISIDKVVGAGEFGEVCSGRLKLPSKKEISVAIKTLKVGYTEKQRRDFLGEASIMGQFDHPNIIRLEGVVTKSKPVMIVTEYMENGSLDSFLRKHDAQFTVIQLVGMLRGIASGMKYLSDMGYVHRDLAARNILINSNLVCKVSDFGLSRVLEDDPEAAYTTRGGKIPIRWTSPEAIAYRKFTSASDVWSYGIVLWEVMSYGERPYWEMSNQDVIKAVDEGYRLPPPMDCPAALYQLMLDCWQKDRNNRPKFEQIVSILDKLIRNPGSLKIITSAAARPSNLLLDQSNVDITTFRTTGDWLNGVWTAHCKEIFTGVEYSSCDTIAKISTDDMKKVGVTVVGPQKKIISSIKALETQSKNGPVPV

[5] = biological target: Death-associated protein kinase 1 (Homo sapiens) (UniProt P53355)
Sequence of Death-associated protein kinase 1 (Homo sapiens) (P53355 whole entry, looked up): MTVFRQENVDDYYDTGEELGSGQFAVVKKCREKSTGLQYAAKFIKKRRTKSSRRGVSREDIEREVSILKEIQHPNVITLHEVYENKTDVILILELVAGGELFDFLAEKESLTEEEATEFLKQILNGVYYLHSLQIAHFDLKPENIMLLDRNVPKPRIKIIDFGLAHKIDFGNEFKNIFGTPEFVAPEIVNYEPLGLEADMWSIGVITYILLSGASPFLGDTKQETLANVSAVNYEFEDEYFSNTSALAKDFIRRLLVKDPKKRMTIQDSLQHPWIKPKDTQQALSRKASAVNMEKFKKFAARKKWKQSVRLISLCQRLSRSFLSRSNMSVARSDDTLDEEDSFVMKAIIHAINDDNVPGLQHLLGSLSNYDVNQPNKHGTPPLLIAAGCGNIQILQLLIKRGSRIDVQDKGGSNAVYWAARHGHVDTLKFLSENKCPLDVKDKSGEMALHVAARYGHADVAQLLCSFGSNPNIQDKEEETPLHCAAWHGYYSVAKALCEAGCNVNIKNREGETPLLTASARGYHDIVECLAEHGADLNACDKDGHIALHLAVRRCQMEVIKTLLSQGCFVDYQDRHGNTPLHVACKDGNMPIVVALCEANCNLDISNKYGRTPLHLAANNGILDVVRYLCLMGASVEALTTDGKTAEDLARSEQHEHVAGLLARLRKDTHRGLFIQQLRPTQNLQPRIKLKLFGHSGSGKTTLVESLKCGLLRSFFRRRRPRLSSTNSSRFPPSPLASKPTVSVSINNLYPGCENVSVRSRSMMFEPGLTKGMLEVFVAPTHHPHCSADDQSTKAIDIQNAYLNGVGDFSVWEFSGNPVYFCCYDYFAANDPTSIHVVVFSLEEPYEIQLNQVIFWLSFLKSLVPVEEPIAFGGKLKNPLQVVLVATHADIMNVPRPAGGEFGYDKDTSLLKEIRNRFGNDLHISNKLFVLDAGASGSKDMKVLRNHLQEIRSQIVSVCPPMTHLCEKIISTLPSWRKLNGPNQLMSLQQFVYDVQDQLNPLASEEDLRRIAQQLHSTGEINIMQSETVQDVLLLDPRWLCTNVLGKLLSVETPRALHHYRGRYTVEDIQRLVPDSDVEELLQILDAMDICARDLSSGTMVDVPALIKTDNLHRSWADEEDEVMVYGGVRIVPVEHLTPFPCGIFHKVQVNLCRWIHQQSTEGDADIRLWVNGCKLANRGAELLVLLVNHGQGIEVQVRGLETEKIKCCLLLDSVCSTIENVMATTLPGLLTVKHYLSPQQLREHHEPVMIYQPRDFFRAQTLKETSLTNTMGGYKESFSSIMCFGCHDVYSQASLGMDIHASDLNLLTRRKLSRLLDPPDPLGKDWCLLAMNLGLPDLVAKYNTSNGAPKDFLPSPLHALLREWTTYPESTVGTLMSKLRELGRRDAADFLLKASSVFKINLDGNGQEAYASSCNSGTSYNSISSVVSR

[6] = biological target: 5'-AMP-activated protein kinase catalytic subunit alpha-2 (Homo sapiens) (UniProt P54646)
[7] = biological target: Receptor tyrosine-protein kinase erbB-4 (Homo sapiens) (UniProt Q15303)
[8] = biological target: T2, Tyrosine-protein kinase TXK (Homo sapiens) (UniProt P42681)
T2 sequence (whole entry): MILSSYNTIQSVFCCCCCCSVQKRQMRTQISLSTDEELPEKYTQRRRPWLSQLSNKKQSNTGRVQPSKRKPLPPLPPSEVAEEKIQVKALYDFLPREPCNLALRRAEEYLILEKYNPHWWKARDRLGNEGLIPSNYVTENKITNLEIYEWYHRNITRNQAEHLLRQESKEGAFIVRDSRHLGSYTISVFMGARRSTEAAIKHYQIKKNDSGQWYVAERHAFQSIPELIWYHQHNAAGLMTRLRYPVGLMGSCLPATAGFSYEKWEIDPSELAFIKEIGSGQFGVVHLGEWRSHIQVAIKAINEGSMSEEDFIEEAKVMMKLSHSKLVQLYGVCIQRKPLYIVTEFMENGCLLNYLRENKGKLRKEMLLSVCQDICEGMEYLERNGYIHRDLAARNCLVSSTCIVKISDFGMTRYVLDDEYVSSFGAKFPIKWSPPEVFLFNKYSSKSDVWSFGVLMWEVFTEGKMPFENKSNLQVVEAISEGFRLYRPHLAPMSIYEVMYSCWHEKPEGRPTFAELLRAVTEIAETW

[9] = biological target: Wee1-like protein kinase 2 (Homo sapiens) (UniProt P0C1S8)
[10] = biological target: Dual specificity protein kinase CLK4 (Homo sapiens) (UniProt Q9HAZ1)
Sequence of Dual specificity protein kinase CLK4 (Homo sapiens) (Q9HAZ1 whole entry, looked up): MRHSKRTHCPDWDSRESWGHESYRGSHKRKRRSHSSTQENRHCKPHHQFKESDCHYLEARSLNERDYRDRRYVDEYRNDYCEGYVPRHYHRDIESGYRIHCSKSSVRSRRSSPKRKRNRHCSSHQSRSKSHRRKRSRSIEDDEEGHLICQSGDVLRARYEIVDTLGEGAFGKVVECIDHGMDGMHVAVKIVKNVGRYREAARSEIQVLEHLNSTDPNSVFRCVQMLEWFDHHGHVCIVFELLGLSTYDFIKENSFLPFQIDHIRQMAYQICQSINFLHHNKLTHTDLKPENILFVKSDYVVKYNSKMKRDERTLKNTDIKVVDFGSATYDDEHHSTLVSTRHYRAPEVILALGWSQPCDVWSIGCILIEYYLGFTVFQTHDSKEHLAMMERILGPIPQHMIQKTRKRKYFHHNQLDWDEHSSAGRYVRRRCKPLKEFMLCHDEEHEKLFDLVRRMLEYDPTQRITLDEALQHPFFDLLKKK

[11] = biological target: Receptor-interacting serine/threonine-protein kinase 2 (Homo sapiens) (UniProt O43353)
[12] = biological target: Phosphatidylinositol 4-phosphate 5-kinase type-1 gamma (Homo sapiens) (UniProt O60331)
[13] = biological target: T3, TGF-beta receptor type-1 (Homo sapiens) (UniProt P36897)
T3 sequence (whole entry): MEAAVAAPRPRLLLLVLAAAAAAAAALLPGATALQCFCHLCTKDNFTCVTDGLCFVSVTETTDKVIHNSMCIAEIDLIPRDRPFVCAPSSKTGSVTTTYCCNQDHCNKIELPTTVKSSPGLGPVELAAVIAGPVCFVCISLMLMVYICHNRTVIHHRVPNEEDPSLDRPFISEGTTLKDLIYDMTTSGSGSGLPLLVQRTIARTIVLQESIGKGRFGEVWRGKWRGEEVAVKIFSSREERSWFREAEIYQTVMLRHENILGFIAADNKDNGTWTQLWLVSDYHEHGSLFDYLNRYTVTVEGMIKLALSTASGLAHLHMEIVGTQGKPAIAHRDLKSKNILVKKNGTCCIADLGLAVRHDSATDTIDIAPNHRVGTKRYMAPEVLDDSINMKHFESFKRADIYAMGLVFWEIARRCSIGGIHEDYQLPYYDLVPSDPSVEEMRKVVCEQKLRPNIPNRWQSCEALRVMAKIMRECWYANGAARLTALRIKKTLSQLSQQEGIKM

[14] = biological target: Platelet-derived growth factor receptor beta (Homo sapiens) (UniProt P09619)
Sequence of Platelet-derived growth factor receptor beta (Homo sapiens) (P09619 whole entry): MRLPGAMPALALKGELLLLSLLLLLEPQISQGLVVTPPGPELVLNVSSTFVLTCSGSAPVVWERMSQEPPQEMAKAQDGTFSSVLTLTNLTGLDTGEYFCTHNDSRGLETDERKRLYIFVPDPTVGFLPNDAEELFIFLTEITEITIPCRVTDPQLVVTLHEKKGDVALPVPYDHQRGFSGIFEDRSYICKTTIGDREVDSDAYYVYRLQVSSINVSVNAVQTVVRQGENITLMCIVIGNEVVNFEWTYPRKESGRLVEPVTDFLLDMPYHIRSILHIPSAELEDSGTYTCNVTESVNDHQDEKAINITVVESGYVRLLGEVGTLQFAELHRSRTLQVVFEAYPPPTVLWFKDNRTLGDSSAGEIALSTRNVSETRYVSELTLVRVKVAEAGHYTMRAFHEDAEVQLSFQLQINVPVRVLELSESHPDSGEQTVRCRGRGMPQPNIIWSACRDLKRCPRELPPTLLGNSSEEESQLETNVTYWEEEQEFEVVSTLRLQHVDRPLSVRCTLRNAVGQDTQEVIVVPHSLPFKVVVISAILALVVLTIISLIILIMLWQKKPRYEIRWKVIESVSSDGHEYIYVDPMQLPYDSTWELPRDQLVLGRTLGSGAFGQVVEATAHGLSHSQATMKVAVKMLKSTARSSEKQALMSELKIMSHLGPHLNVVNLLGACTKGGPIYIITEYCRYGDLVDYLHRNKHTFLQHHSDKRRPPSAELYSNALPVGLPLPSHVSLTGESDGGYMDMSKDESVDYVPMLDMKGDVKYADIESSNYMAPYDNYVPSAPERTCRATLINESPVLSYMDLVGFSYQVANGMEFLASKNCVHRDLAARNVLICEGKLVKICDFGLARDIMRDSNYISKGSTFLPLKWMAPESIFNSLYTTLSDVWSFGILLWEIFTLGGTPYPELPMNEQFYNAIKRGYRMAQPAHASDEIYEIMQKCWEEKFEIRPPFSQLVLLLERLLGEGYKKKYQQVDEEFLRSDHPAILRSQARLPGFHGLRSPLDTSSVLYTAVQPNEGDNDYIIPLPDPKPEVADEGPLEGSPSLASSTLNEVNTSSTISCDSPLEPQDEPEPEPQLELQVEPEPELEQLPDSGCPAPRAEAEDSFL

[15] = biological target: Cyclin-dependent kinase 13/Cyclin-K (Homo sapiens) (UniProt Q14004+O75909)
Sequence of Cyclin-dependent kinase 13/Cyclin-K (Homo sapiens) (O75909 whole entry, looked up): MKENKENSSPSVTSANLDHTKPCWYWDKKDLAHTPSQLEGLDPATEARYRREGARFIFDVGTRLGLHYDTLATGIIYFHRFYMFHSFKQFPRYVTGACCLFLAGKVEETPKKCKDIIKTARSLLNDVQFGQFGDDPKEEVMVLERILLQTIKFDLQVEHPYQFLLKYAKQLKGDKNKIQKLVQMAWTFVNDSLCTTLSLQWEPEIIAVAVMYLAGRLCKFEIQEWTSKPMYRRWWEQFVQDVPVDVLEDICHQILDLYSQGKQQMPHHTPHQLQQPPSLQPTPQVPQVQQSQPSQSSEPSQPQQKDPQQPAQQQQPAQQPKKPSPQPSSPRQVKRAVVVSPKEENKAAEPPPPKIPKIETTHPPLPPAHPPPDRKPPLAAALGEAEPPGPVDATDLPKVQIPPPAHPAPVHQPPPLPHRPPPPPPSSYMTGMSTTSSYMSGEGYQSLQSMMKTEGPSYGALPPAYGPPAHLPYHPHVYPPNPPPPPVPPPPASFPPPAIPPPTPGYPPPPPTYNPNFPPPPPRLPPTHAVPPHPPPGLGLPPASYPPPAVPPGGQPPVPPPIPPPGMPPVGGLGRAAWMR
Sequence of Cyclin-dependent kinase 13/Cyclin-K (Homo sapiens) (Q14004 whole entry, looked up): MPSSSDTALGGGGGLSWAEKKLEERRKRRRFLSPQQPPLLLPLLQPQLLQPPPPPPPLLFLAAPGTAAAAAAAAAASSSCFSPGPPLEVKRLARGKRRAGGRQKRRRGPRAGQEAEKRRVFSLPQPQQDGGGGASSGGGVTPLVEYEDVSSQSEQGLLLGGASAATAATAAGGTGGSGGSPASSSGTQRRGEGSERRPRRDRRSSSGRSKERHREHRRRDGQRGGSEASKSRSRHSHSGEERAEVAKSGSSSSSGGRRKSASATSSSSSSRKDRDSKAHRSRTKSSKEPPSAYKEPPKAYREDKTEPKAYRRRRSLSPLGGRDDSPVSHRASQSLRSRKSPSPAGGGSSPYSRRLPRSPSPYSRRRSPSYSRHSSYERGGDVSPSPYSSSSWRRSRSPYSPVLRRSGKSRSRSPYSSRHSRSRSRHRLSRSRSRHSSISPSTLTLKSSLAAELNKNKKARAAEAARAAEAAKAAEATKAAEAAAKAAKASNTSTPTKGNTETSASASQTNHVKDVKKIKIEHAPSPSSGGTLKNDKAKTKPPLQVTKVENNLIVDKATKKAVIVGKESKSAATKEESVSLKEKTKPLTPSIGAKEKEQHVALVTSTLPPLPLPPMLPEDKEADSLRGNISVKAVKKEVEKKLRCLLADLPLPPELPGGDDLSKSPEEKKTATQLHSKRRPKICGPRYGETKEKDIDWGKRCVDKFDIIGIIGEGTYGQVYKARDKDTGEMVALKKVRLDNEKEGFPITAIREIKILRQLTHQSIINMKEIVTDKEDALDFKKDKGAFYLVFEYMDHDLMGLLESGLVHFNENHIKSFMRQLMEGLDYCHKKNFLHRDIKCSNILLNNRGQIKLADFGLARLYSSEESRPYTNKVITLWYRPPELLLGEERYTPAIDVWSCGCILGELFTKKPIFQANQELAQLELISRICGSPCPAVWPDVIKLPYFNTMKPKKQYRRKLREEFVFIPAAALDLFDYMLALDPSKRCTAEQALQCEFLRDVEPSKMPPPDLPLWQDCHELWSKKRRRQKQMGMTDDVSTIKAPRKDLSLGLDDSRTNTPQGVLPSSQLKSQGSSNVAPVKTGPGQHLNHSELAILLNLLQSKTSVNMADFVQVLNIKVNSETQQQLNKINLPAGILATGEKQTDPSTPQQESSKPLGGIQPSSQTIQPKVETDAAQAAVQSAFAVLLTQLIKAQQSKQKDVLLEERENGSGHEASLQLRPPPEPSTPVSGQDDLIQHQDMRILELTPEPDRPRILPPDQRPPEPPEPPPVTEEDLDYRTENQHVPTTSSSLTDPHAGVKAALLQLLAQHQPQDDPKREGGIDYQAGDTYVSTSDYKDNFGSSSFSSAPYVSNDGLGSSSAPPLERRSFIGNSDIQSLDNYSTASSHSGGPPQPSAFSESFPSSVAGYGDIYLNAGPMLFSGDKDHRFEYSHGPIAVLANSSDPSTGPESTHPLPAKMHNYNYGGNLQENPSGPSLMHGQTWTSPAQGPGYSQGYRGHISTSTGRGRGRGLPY

Measured: % residual kinase activity

CN1CCN(c2cnc3c(C4CCN(C(=O)c5ccc(OC(F)(F)F)cc5N)CC4)ncnc3c2)CC1 [BAY-885]
inactive: [1] 121% | [2] 96% | [3] 99% | [4] 86% | [5] 109% | [6] 109% | [7] 98% | [8] 99% | [9] 124% | [10] 118% | [11] 101% | [12] 93% | [13] 81% | [14] 107% | [15] 109%
